Laboratory results taken from ChEMBL document CHEMBL4507319 (2021).

Experiments:
[1] = system: Tyrosine-protein kinase ABL1 (Homo sapiens), P00519 [T315I]; settings: Compound concentration 1000.0 nM
[2] = target: Tyrosine-protein kinase BTK (Homo sapiens) (UniProt Q06187); settings: Compound concentration 1000.0 nM
[3] = target: Serine/threonine-protein kinase Chk2 (Homo sapiens) (UniProt O96017); settings: Compound concentration 1000.0 nM
[4] = target: Casein kinase I isoform delta (Homo sapiens) (UniProt P48730); settings: Compound concentration 1000.0 nM
[5] = target: Vascular endothelial growth factor receptor 3 (Homo sapiens) (UniProt P35916); settings: Compound concentration 1000.0 nM
[6] = target: Mitogen-activated protein kinase kinase kinase 10 (Homo sapiens) (UniProt Q02779); settings: Compound concentration 1000.0 nM
[7] = target: T1, Serine/threonine-protein kinase 3 (Homo sapiens) (UniProt Q13188); settings: Compound concentration 1000.0 nM
T1 sequence (whole entry): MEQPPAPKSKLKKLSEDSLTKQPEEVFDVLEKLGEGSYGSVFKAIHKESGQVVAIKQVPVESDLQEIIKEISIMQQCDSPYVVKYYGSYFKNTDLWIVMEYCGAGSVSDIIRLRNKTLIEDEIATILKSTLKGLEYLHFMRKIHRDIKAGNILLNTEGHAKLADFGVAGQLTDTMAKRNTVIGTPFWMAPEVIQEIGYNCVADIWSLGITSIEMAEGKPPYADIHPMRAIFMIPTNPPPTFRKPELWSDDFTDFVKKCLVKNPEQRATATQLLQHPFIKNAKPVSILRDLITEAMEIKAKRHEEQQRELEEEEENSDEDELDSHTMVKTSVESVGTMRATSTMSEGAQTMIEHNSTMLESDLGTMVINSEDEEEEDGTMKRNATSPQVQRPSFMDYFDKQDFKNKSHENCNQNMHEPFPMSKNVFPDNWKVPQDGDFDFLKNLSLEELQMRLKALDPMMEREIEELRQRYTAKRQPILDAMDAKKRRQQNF

[8] = target: T2, Serine/threonine-protein kinase Nek11 (Homo sapiens) (UniProt Q8NG66); settings: Compound concentration 1000.0 nM
T2 sequence (whole entry): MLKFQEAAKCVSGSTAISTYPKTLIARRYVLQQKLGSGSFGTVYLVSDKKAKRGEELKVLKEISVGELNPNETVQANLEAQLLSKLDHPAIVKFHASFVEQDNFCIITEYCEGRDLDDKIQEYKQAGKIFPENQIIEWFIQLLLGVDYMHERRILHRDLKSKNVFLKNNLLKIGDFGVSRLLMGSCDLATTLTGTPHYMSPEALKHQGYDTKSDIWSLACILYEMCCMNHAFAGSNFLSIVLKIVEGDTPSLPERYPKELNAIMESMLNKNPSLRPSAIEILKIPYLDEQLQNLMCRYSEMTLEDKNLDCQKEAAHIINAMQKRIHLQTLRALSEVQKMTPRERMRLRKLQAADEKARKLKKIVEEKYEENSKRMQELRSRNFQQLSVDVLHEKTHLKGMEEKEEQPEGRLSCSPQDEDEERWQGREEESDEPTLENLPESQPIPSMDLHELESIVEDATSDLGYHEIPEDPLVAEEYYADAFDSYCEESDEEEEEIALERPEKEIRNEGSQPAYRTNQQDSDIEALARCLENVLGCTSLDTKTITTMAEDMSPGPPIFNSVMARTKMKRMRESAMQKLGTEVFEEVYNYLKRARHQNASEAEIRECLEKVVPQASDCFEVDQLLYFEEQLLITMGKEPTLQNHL

[9] = target: Cyclin-dependent kinase 17 (Homo sapiens) (UniProt Q00537); settings: Compound concentration 1000.0 nM
[10] = target: T3, Serine/threonine-protein kinase TAO3 (Homo sapiens) (UniProt Q9H2K8); settings: Compound concentration 1000.0 nM
T3 sequence (whole entry): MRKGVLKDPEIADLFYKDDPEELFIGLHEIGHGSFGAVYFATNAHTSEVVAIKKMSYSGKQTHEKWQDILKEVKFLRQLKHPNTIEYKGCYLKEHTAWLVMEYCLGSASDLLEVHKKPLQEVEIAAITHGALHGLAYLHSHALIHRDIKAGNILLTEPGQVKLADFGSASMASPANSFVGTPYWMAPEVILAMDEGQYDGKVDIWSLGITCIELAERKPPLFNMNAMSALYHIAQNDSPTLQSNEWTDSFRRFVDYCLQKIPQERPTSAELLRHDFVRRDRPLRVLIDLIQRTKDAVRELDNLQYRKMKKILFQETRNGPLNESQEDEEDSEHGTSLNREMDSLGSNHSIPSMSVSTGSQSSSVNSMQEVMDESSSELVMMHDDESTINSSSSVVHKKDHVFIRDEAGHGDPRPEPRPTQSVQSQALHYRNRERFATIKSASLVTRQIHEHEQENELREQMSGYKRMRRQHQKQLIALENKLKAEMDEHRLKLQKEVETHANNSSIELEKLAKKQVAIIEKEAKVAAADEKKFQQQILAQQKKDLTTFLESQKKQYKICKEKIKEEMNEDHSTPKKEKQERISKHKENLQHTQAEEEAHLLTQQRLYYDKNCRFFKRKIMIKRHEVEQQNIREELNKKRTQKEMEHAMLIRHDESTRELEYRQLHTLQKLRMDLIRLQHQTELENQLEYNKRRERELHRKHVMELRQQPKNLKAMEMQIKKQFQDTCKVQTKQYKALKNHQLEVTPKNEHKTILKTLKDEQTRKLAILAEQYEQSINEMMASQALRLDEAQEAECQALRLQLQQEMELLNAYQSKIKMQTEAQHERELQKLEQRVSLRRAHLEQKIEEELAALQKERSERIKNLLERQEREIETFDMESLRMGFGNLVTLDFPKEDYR

[11] = target: TGF-beta receptor type-2 (Homo sapiens) (UniProt P37173); settings: Compound concentration 1000.0 nM
[12] = target: 5-hydroxytryptamine receptor 1B (Homo sapiens) (UniProt P28222); settings: Compound concentration 10.0 uM
[13] = target: D(1B) dopamine receptor (Homo sapiens) (UniProt P21918); settings: Compound concentration 10.0 uM
[14] = target: Sigma intracellular receptor 2 (Homo sapiens, UniProt Q5BJF2); settings: Compound concentration 10.0 uM
Sigma intracellular receptor 2, sequence (Q5BJF2 whole entry): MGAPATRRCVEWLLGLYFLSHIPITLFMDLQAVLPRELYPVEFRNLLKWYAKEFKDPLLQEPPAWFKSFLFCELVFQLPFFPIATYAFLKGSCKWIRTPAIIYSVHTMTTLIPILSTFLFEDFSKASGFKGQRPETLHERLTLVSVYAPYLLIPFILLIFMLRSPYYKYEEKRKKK

Tyrosine-protein kinase BTK (Homo sapiens), sequence (Q06187 whole entry): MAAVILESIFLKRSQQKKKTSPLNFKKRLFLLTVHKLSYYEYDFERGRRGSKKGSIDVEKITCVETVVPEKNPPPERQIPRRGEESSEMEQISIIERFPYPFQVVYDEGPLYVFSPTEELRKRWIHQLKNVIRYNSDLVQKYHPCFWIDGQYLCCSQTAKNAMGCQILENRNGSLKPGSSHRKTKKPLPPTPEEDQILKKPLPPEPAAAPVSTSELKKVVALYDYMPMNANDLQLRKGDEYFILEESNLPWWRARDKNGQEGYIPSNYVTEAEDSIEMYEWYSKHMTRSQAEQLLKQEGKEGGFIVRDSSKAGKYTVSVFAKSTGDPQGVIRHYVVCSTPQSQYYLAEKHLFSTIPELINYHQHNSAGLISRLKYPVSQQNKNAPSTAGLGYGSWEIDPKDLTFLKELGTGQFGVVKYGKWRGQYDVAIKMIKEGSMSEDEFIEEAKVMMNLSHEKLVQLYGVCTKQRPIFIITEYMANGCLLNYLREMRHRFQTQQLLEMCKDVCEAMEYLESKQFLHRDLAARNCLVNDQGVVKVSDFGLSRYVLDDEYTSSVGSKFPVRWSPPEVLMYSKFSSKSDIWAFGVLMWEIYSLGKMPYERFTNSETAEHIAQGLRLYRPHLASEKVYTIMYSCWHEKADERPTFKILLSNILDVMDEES
Casein kinase I isoform delta (Homo sapiens), sequence (P48730 whole entry, looked up, canonical isoform): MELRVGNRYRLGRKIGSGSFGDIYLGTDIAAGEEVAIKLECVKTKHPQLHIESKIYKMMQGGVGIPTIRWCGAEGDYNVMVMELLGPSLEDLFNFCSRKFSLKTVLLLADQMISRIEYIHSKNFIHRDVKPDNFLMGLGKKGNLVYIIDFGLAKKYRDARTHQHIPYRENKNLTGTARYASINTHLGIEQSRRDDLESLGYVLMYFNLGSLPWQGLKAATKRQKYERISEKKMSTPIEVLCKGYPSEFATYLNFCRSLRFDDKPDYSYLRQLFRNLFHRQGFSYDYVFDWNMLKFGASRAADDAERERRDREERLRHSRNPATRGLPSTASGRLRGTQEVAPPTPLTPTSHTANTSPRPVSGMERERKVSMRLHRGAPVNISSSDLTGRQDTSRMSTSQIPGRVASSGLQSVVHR
5-hydroxytryptamine receptor 1B (Homo sapiens), sequence (P28222 whole entry): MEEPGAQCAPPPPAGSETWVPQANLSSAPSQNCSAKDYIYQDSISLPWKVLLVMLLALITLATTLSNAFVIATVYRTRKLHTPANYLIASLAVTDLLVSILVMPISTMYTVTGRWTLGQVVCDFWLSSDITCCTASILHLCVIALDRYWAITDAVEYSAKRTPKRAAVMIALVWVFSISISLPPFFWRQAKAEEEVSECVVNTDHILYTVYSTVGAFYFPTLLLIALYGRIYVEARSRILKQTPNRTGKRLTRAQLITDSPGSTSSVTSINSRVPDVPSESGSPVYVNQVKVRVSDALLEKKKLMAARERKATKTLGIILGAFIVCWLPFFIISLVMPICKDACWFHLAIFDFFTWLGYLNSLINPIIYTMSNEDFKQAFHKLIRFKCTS
Serine/threonine-protein kinase Chk2 (Homo sapiens), sequence (O96017 whole entry, canonical isoform): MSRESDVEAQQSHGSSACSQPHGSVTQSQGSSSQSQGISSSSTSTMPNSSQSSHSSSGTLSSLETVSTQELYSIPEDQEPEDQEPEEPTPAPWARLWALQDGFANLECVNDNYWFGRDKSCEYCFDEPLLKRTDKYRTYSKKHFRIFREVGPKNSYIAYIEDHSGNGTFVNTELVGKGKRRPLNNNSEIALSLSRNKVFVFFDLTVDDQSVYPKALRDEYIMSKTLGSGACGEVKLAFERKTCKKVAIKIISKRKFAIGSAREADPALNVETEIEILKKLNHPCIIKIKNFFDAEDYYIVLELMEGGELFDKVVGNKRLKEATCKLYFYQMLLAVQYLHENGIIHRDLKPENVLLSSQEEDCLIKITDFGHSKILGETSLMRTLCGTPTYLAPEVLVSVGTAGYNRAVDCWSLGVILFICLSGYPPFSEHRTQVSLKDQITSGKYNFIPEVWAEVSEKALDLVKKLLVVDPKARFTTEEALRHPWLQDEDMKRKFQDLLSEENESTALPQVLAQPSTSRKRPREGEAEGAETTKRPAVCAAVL
Vascular endothelial growth factor receptor 3 (Homo sapiens), sequence (P35916 whole entry): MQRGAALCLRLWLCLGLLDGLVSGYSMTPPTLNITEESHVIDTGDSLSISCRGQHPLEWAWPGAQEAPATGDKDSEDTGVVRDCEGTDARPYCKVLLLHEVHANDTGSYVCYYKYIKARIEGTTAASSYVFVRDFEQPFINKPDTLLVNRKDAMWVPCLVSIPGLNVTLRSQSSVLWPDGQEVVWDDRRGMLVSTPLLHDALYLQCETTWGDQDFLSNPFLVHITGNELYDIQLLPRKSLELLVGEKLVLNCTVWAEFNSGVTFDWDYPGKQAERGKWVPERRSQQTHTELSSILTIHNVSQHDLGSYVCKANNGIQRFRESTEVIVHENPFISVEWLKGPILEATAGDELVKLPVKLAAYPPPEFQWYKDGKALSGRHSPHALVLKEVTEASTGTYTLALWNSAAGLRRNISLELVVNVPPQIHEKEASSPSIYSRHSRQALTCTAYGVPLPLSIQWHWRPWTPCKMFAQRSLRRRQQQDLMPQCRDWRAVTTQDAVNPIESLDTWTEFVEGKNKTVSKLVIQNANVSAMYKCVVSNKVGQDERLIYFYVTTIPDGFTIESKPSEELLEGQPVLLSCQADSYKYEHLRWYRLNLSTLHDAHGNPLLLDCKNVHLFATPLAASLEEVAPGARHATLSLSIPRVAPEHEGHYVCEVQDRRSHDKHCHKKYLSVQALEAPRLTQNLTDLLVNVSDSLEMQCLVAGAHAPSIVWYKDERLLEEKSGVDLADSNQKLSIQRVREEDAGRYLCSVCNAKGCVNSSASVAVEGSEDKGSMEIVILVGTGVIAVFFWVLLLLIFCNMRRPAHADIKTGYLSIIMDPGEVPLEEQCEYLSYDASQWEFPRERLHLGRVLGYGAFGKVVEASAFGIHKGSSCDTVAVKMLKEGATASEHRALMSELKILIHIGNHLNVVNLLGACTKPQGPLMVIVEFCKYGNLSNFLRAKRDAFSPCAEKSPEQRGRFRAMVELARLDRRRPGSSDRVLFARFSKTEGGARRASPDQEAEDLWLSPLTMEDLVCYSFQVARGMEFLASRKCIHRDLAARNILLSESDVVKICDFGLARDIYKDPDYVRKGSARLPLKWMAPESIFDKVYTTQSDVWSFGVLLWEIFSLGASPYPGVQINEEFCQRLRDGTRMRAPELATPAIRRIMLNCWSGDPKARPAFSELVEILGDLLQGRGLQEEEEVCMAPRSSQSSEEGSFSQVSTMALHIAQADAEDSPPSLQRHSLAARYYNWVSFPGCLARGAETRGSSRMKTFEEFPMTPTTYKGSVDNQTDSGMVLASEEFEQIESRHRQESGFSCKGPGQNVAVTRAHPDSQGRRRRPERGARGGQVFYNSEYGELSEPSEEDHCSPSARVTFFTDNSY
Mitogen-activated protein kinase kinase kinase 10 (Homo sapiens), sequence (Q02779 whole entry, looked up): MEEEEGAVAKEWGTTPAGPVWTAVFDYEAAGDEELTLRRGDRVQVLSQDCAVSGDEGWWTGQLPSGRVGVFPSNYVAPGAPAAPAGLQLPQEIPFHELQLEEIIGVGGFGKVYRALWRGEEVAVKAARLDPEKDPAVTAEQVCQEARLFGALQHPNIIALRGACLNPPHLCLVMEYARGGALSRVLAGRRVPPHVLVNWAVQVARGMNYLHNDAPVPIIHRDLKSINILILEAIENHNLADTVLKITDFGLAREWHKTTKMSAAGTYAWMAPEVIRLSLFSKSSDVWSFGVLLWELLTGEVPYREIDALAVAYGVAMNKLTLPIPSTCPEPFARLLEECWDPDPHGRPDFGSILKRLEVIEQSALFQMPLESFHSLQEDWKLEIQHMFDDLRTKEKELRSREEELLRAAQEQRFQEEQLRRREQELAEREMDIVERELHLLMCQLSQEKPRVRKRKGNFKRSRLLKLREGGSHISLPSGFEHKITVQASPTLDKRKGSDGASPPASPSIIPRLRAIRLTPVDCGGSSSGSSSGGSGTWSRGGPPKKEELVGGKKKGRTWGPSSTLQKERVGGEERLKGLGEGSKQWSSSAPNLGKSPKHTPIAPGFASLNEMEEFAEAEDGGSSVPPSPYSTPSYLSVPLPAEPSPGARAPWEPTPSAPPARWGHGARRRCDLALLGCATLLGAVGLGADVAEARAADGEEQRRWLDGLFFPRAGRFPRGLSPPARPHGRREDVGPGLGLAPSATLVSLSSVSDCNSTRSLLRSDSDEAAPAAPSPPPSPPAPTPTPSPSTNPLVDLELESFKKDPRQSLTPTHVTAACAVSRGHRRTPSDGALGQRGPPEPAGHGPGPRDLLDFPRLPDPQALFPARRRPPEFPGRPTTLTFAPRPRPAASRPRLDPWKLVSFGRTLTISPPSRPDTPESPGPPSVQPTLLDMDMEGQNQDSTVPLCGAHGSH
Cyclin-dependent kinase 17 (Homo sapiens), sequence (Q00537 whole entry, looked up): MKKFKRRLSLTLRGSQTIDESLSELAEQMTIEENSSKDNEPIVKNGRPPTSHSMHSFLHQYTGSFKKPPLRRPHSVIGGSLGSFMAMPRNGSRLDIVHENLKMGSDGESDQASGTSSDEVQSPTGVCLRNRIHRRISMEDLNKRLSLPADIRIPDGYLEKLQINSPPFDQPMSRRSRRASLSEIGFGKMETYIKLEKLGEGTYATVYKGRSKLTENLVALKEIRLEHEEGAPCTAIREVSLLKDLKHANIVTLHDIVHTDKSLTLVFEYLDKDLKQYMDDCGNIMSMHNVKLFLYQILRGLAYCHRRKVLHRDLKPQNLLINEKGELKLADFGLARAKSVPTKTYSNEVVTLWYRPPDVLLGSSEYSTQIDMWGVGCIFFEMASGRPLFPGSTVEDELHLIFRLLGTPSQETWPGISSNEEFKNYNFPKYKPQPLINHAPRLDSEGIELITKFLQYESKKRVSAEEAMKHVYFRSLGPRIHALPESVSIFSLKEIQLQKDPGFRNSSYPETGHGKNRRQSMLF

| Structure (SMILES) | residual activity [1] [%] | residual activity [2] [%] | residual activity [3] [%] | residual activity [4] [%] | residual activity [5] [%] | residual activity [6] [%] | residual activity [7] [%] | residual activity [8] [%] | residual activity [9] [%] | residual activity [10] [%] | residual activity [11] [%] | inhibition [12] [%] | inhibition [13] [%] | inhibition [14] [%] |
| --- | --- | --- | --- | --- | --- | --- | --- | --- | --- | --- | --- | --- | --- | --- |
| CCc1ccccc1C(=O)Nc1n[nH]c2c(C)c(F)c(C3C(C#N)=C(C)N(C)C(C)=C3C#N)cc12 [BAY-3827] | 72 | 99 | 70 | 100 | 85 | 100 | 80 | 100 | 93 | 38 | 82 | 9.48 | 8.47 | 78.3 |
| CC1=C(C#N)C(c2ccc3c(c2)c(NC(=O)c2ccccc2C)nn3C)C(C#N)=C(C)N1 [BAY-974] | 97 | 85 | 74 | 89 | 100 | 69 | 100 | 96 | 100 | 80 | 99 | 4.12 | 14.6 | 51.2 |
